Measurements as given in patent US8722663B2, “Di-substituted pyridine derivatives as anticancers” (Otsuka Pharmaceutical Co., Ltd., priority 2010, dated 2014).
Structures can show the parent of a compound that is named as a salt. Blank lines part the entries; values can stand above or below the compound they belong to.

Columns and labels:
[1] = test system: PSA; assay: Plasma levels of PSA in LNCaP-Bic tumor bearing nude mice, ELISA; assay type: in vivo; conditions: Mus musculus, po, 336 h; 10 mg/kg/day orally, once daily, 14 consecutive days; plasma PSA by ELISA; read-out: T/C(%) (10 mg/kg/day), plasma levels of PSA treated/control
Method: (§1) Human prostate cancer cells (LNCaP-Bic) were transplanted in nude mice (6 males/group) and the inhibitory effect of the invention on their growth was examined. In the study, the tumor cell suspension with matrigel was inoculated at 0.12 mL/body (2.4×10^6 cells/body) into the subcutaneous space of the right axillary region to prepare tumor bearing mice. When the tumor diameter became 5 mm or more, the animals were allocated to groups based on the tumor volume. The test compound was administered orally as a suspension in 5% gum arabic, once daily, for 14 consecutive days. The control group received 5% gum arabic. Tumor volumes were measured on the following day of the last administration. Tumors were removed and the wet weight of the tumor was measured using an electronic balance. The ratio of the tumor weight in the treated group to that in the control group (T/C %) was calculated as the index for the effect. T/C %=(Mean tumor weight in the treatment group/Mean tumor weight in the control group)×100.
The heparinized blood was collected from the postcava under diethylether anesthesia. The plasma levels of PSA were measured using ELISA. The ratio of the plasma levels of PSA in the treated group to that in the control group (T/C %) was calculated as the index for the effect. T/C %=(Mean plasma levels of PSA in the treatment group/Mean plasma levels of PSA in the control group)×100.

[2] = test system: human prostate (adenocarcinoma) cell line (PC-3); assay: Growth inhibition of PC-3 cells, WST-8 assay; assay type: cell-based; conditions: 120 h, 5 days with test compound
Method: (§2) The growth inhibition on a bicalutamide resistant human prostate cancer cell line established from LNCaP.FGC (LNCaP-Bic) (Hobisch A, et al. Prostate. 2006; 66(4):413-20.) was determined by a WST-8 assay according to the method of Singh A K, et al. (Cancer Lett. 1996 Oct. 1; 107(1): 109-15.). In this method, LNCaP-Bic cells were seeded in RPMI 1640 medium containing 10% fetal bovine serum in a 96-well microplate and incubated at 37° C. for 24 hours in the presence of 5% carbon dioxide. Then, the test compound was added and the cells were incubated for another 5 days. After incubation, a 15-μL volume of WST-8 (2-(2-methoxy-4-nitrophenyl)-3-(4-nitrophenyl)-5-(2,4-[…])-2H-tetrazolium, monosodium salt) was added. After the incubation for the time, the color reaction was stopped by adding 15 μL of 1% SDS (sodium dodecyl sulfate) solution and the optical density was determined at the measurement wavelength of 450 nm and the reference wavelength of 630 nm, and the difference was calculated. The cell growth activity in each well was defined as the value determined by subtracting the OD in the control well not containing cells (the difference in absorbance between 450 nm and 630 nm) from that in the test well.
(§3) The 50% inhibitory concentration (IC50 (nM)) of the test compound was determined by comparing the cell growth activity in the well containing the test compound with that of the control not containing the test compound.
The growth inhibition on a human prostate (adenocarcinoma) cell line (PC-3) (van Bokhoven A, et al. Prostate. 2003; 57(3):205-25.) was also determined by the above method.

[3] = test system: Human prostate cancer cells (LNCaP-Bic); assay: Antitumor effect on LNCaP-Bic tumors transplanted in nude mice, tumor weight; assay type: in vivo; conditions: Mus musculus, po, 336 h, 10 mg/kg/day orally, once daily, 14 consecutive days, read-out: T/C(%) (10 mg/kg/day), tumor weight treated/control
Method: as §1

[4] = test system: human prostate (carcinoma) cell line (DU 145); assay: Growth inhibition of DU 145 cells, WST-8 assay; assay type: cell-based; conditions: 120 h, 5 days with test compound
Method: as §2, §3
The growth inhibition on a human prostate (carcinoma) cell line (DU 145) (van Bokhoven A, et al. Prostate. 2003; 57(3):205-25.) was also determined by the above method.

[5] = test system: bicalutamide resistant human prostate cancer cell line established from LNCaP.FGC (LNCaP-Bic); assay: Growth inhibition of LNCaP-Bic cells, WST-8 assay; assay type: cell-based; conditions: 120 h, 5 days with test compound
Method: as §2, §3

[6] = test system: human hepatic cancer cell line (HuH-7); assay: Growth inhibition of HuH-7 cells, sulforhodamine B method; assay type: cell-based; conditions: Homo sapiens, 120 h, 5 days with test compound
Method: (§4) Growth inhibition of a human breast cancer cell line (MDA-MB-468) was determined by the sulforhodamine B method based on the method of Skehan P. et al. (J Natl Cancer Inst. 1990 Jul. 4; 82(13): 1107-12). In the study, MDA-MB-468 cells were seeded on DMEM medium containing 10% fetal bovine serum in a 96-well microplate. After 24-h incubation at 37° C. in the presence of 5% carbon dioxide, the test compound was added and the cells were incubated for another 5 days. After incubation, a trichloroacetic acid solution was added to yield the final concentration of 10% and the cells were left to stand at 4° C. for 1 hour to fix. Then, the cells were washed with water to remove the medium and trichloroacetic acid and dried in the air. The dried cells were stored at 4° C. until they were stained with sulforhodamine B. To each well, 1% acetic acid solution containing 0.4% sulforhodamine B was added and left to stand for 20 to 30 minutes at room temperature. After discarding the supernatant, each well was washed with 1% acetic acid solution, and 10 mM Tris([…]) solution was added while stirring to elute the dye taken into the cells. Then, the optical density was determined at the measurement wavelength of 492 nm and the reference wavelength of 690 nm, and the difference was calculated. The cell growth activity in each well was defined as the value determined by subtracting the OD in the control well not containing cells (the difference in absorbance between 492 nm and 690 nm) from that in the test well.
as §3
The growth inhibition on a human hepatic cancer cell line (HuH-7) was also determined by the above method.

[7] = test system: human prostate (carcinoma) cell line (LNCaP.FGC); assay: Growth inhibition of LNCaP.FGC cells, WST-8 assay; assay type: cell-based; conditions: 120 h, 5 days with test compound
Method: as §2, §3
The growth inhibition on a human prostate (carcinoma) cell line (LNCaP.FGC) (van Bokhoven A, et al. Prostate. 2003; 57(3):205-25.) was also determined by the above method.

[8] = test system: human prostate (adenocarcinoma) cell line (VcaP); assay: Growth inhibition of VcaP cells, WST-8 assay; assay type: cell-based; conditions: 120 h, 5 days with test compound
Method: as §2, §3
The growth inhibition on a human prostate (adenocarcinoma) cell line (VcaP) (Korenchuk S, et al. In Vivo. 2001; 15(2):163-8.) was also determined by the above method.

[9] = test system: human breast cancer cell line (MDA-MB-468); assay: Growth inhibition of MDA-MB-468 cells, sulforhodamine B method; assay type: cell-based; conditions: 120 h, 5 days with test compound
Method: as §4, §3

Compound: Cc1cc(/C=C/C(=O)N2CCN(Cc3ccc(CCOc4ccc(F)cc4)cc3)CC2)cc(Cl)c1Oc1ccc(OCc2ccc(Cl)cc2)cn1.Cl [Example 429, (E)-3-[3-Chloro-4-({5-[(4-chlorobenzyl)oxy]pyridin-2-yl}oxy)-5-methylphenyl]-1-(4-{4-[2-(4-fluorophenoxy)ethyl]benzyl}piperazin-1-yl)prop-2-en-1-one hydrochloride]
- response vs control in vivo at 10 mg/kg [1]: < 50%
- IC50 [2]: < 10 nM
- melting point: 224.4 to 228.8 °C
- response vs control in vivo at 10 mg/kg [3]: < 50%
- IC50 [4]: < 10 nM
- IC50 [5]: < 10 nM
- IC50 [7]: < 10 nM
- IC50 [8]: < 10 nM

Compound: COc1ccc(OCCc2ccc(CN3CCN(C(=O)/C=C/c4cc(C)c(Oc5ccc(OCc6ccc(C)cc6)cn5)c(Cl)c4)CC3)cc2)cc1.Cl [Example 440, (E)-3-[3-Chloro-5-methyl-4-({5-[(4-methylbenzyl)oxy]pyridin-2-yl}oxy)phenyl]-1-(4-{4-[2-(4-methoxyphenoxy)ethyl]benzyl}piperazin-1-yl)prop-2-en-1-one hydrochloride]
- response vs control in vivo at 10 mg/kg [1]: < 50%
- IC50 [2]: < 10 nM
- melting point: 225.1 to 226.6 °C
- response vs control in vivo at 10 mg/kg [3]: < 50%
- IC50 [4]: < 10 nM
- IC50 [5]: < 10 nM
- IC50 [7]: < 10 nM
- IC50 [8]: < 10 nM

Compound: Cc1cc(/C=C/C(=O)N2CCN(Cc3ccc(CCOc4ccc(Cl)cc4)cc3)CC2)cc(C)c1Oc1ccc(OCc2ccc(C#N)cc2)cn1.Cl [Example 558, 4-{[(6-{4-[(E)-3-(4-{4-[2-(4-Chlorophenoxy)ethyl]benzyl}piperazin-1-yl)-3-oxoprop-1-en-1-yl]-2,6-dimethylphenoxy}pyridin-3-yl)oxy]methyl}benzonitrile hydrochloride]
- IC50 [2]: < 10 nM
- melting point: 219.7 to 220.7 °C
- IC50 [4]: < 10 nM
- IC50 [5]: < 10 nM
- IC50 [6]: < 10 nM
- IC50 [7]: < 10 nM
- IC50 [8]: < 10 nM

Compound: Cc1cc(/C=C/C(=O)N2CCN(Cc3ccc(CCOc4ccc(C(C)C)cc4)cc3)CC2)cc(C)c1Oc1ccc(OCc2cscn2)cn1 [Example 600, (E)-3-(3,5-Dimethyl-4-{[5-(1,3-thiazol-4-ylmethoxy)pyridin-2-yl]oxy}phenyl)-1-[4-(4-{2-[4-(propan-2-yl)phenoxy]ethyl}benzyl)piperazin-1-yl]prop-2-en-1-one hydrochloride]
- IC50 [2]: < 10 nM
- IC50 [4]: < 10 nM
- IC50 [5]: < 10 nM
- IC50 [6]: < 10 nM
- IC50 [7]: < 10 nM
- IC50 [8]: < 10 nM

More lines, main results first:

- IC50 [2]: < 10 nM
- IC50 [4]: < 10 nM
- IC50 [5]: < 10 nM
- IC50 [6]: < 10 nM
- IC50 [7]: < 10 nM
- IC50 [8]: < 10 nM
- IC50 [9]: < 10 nM
Compound: Cc1ccc(COc2ccc(Oc3c(C)cc(/C=C/C(=O)N4CCN(Cc5ccc(CCOc6ccc(Cl)cc6)cc5)CC4)cc3Cl)nc2)cc1 [Example 408, (E)-3-[3-chloro-5-methyl-4-({5-[(4-methylbenzyl)oxy]pyridin-2-yl}oxy)phenyl]-1-(4-{4-[2-(4-chlorophenoxy)ethyl]benzyl}piperazin-1-yl)prop-2-en-1-one hydrochloride]
- response vs control in vivo at 10 mg/kg [1]: < 50%
- response vs control in vivo at 10 mg/kg [3]: < 50%

- IC50 [2]: < 10 nM
- IC50 [4]: < 10 nM
- IC50 [5]: < 10 nM
- IC50 [6]: < 10 nM
- IC50 [7]: < 10 nM
- IC50 [8]: < 10 nM
- IC50 [9]: < 10 nM
Compound: Cc1cc(/C=C/C(=O)N2CCN(Cc3ccc(CCOc4ccc(C(C)C)cc4)cc3)CC2)cc(Cl)c1Oc1ccc(OCc2ccc(F)cc2)cn1 [Example 438, (E)-3-[3-Chloro-4-({5-[(4-fluorobenzyl)oxy]pyridin-2-yl}oxy)-5-methylphenyl]-1-[4-(4-{2-[4-(propan-2-yl)phenoxy]ethyl}benzyl)piperazin-1-yl]prop-2-en-1-one hydrochloride]
- response vs control in vivo at 10 mg/kg [1]: < 50%
- response vs control in vivo at 10 mg/kg [3]: < 50%

- IC50 [2]: < 10 nM
- melting point: 210.3 to 210.6 °C
- IC50 [4]: < 10 nM
- IC50 [5]: < 10 nM
- IC50 [6]: < 10 nM
- IC50 [7]: < 10 nM
- IC50 [8]: < 10 nM
- IC50 [9]: < 10 nM
Compound: Cc1ccccc1COc1ccc(Oc2c(C)cc(/C=C/C(=O)N3CCN(Cc4ccc(CCOc5ccc(F)cc5)cc4)CC3)cc2Cl)nc1.Cl [Example 448, (E)-3-[3-Chloro-5-methyl-4-({5-[(2-methylbenzyl)oxy]pyridin-2-yl}oxy)phenyl]-1-(4-{4-[2-(4-fluorophenoxy)ethyl]benzyl}piperazin-1-yl)prop-2-en-1-one hydrochloride]

- IC50 [2]: < 10 nM
- melting point: 188 to 189.5 °C
- IC50 [4]: < 10 nM
- IC50 [5]: < 10 nM
- IC50 [6]: < 10 nM
- IC50 [7]: < 10 nM
- IC50 [8]: < 10 nM
- IC50 [9]: < 10 nM
Compound: Cc1cc(/C=C/C(=O)N2CCN(Cc3ccc(CCOc4ccc(C(C)C)cc4)cc3)CC2)cc(Cl)c1Oc1ccc(OCc2ccccc2F)cn1.Cl [Example 454, (E)-3-[3-Chloro-4-({5-[(2-fluorobenzyl)oxy]pyridin-2-yl}oxy)-5-methylphenyl]-1-[4-(4-{2-[4-(propan-2-yl)phenoxy]ethyl}benzyl)piperazin-1-yl]prop-2-en-1-one hydrochloride]

- IC50 [2]: < 10 nM
- IC50 [4]: < 10 nM
- IC50 [5]: < 10 nM
- IC50 [6]: < 10 nM
- IC50 [7]: < 10 nM
- IC50 [8]: < 10 nM
- IC50 [9]: < 10 nM
Compound: Cc1cc(/C=C/C(=O)N2CCN(Cc3ccc(CCOc4ccc(C(C)C)cc4)cc3)CC2)cc(Cl)c1Oc1ccc(OCc2ccccc2Cl)cn1 [Example 608, (E)-3-[3-Chloro-4-({5-[(2-chlorobenzyl)oxy]pyridin-2-yl}oxy)-5-methylphenyl]-1-[4-(4-{2-[4-(propan-2-yl)phenoxy]ethyl}benzyl)piperazin-1-yl]prop-2-en-1-one hydrochloride]
